Like-named read-outs stand apart in the source and are kept apart here.
Key:
Type in all cases: binding
[1] = target: T1, MD2 (myeloid differentiation protein 2) (Homo sapiens, UniProt Q9Y6Y9); experiment: quenching of MD2 intrinsic fluorescence
T1 sequence (Q9Y6Y9 19-160): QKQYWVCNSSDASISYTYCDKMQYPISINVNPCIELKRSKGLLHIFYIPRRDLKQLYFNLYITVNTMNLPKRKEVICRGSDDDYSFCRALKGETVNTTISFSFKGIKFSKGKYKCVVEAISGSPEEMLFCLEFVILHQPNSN

[2] = target: T1, MD2 (myeloid differentiation protein 2); experiment: Bis-ANS-MD2 complex fluorescence, displaced by
[3] = target: T1, MD2 (myeloid differentiation protein 2); experiment: quenching of MD2 intrinsic fluorescence; remark: listed apart in the source

## C=CCN1CC[C@@]23c4c5ccc(O)c4O[C@@H]2C(=O)CC[C@]3(O)[C@@H]1C5 [(+)-naloxone]
[1]
  Kd: 16.6 ± 4.7 µM

## O=S(=O)(O)c1cccc2c(-c3ccc(Nc4ccccc4)c4c(S(=O)(=O)O)cccc34)ccc(Nc3ccccc3)c12 [Bis-ANS]
[2]
  Bis-ANS-MD2 complex fluorescence, displaced by (+)-naloxone: (+)-Naloxone decreased Bis-ANS-MD2 complex fluorescence, suggesting that (+)-naloxone replaces Bis-ANS binding to MD2

## C=CCN1CC[C@]23c4c5ccc(O)c4O[C@H]2C(=O)CC[C@@]3(O)[C@H]1C5 [(−)-naloxone]
[3]
  Kd: 17.7 ± 3.2 µM

Reference: publication PMC3454463 (2012)
